Experimental data: patent publication US9902986B2, “Enterobactin conjugates and uses thereof” (Massachusetts Institute of Technology, priority 2013, dated 2018)
Entries after “also recorded” stand apart in the source; their conditions may differ.

Tests used:
E. coli CFT073 [1] = test: Antimicrobial activity assay in the presence of lipocalin 2; format: cell-based, Escherichia coli; settings: conjugate 100 nM, lcn2 1 μM, M9 minimal media, 37° C., 24 h
Method: The bacterial cultures were grown in modified M9 minimal medium (Blango, M. G.; Ott, E. M.; Erman, A.; Veranic, P.; Mulvey, M. A. Forced Resurgence and Targeting of Intracellular Uropathogenic Escherichia coli Reservoirs. PLoS One 2014, 9, e93327-e93335) (Na2HPO4 6.8 g/L, KH2PO4 3 g/L, NaCl 0.5 g/L, NH4Cl 1 g/L, 0.4% glucose, 2 mM MgSO4, 0.1 mM CaCl2, 0.2% casein amino acids, and 16.5 μg/mL of thiamine) overnight. […] The cultures were serially diluted to an OD600 value of 0.00001 in fresh modified M9 minimal medium. Lipocalin 2 (Lcn2) was diluted into PBS buffer to a concentration of 20 μM upon arrival and frozen at −20° C. until use. Bovine serum albumin (BSA, Sigma-Aldrich) was prepared in PBS buffer to achieve a concentration of 20 μM. […] The bacterial growth was determined by measuring OD600 using the plate reader. […] The resulting mean OD600 was reported, and the error bars were the standard deviation. […] In contrast, Lcn2 had no effect of the antibacterial activity of MGE-Amp, MGE-Amx, DGE-Amp, or DGE-Amx.

E. coli 25922 = test: Antimicrobial activity assay, E. coli 25922; format: cell-based, Escherichia coli; settings: 50% MHB, 200 μM DP (iron-deficient), 30° C., t=19 h
Method: No antibiotic marker was included in these cultures. […] Bacterial growth was determined by measuring OD600 using a BIOTEK SYNERGY HT plate reader. Each well condition was prepared in duplicate, and at least three independent replicates were conducted on different days. The resulting mean OD600 are reported and the error bars are the standard deviation.
In another exemplary experiment, antibacterial activities of the conjugates were tested against E. coli 25922 in 50% MHB at 30° C., t=19 h. […] Under iron-deficient conditions, Ent-Amp and MGE-Amp provided a complete growth inhibition at 100 nM whereas 1 μM of DGE-Amp was required to provide a complete growth inhibition.

E. coli H9049 = test: Antimicrobial activity assay, E. coli H9049; format: cell-based, Escherichia coli; settings: 50% MHB, 30° C., t=19 h
Method: (§1) Overnight cultures of the bacterial strains were prepared by inoculating 5 mL of LB with the bacterial freezer stocks and the cultures were incubated at 37° C. in a tabletop incubator shaker set at 150 rpm. The overnight culture grew to saturation and was diluted 1:100 into 5 mL of fresh LB medium containing DP (200 μM) and incubated at 37° C. with shaking at 150 rpm until OD600 reached 0.6. The cultures were subsequently diluted to an OD600 value of 0.001 in 50% MHB medium (11.5 g/L) with or without DP (200 μM). No antibiotic marker was included in these cultures. A 90-μL aliquot of the diluted culture was combined with a 10-μL aliquot of a 10× solution of the tested compounds in a 96-well plate, which was wrapped in […] and incubated at 30° C. with shaking at 150 rpm for 19 h. Bacterial growth was determined by measuring OD600 using a BIOTEK SYNERGY HT plate reader. Each well condition was prepared in duplicate, and at least three independent replicates were conducted on different days. The resulting mean OD600 are reported and the error bars are the standard deviation.
In another exemplary experiment, antibacterial activities of the conjugates were tested against E. coli H9049 in 50% MHB at 30° C., t=19 h. DP (200 μM) was added to provide conditions of iron limitation.

E. coli CFT073 [2] = test: Competition assay with native siderophores, E. coli CFT073; format: cell-based, Escherichia coli; settings: conjugate 100 nM, varied Ent, MGE or DGE, 50% MHB, 200 μM DP, 30° C., t=19 h
Method: These assays were performed following the general procedure described herein except that varying concentrations of Ent, MGE, or DGE, each of which was unmodified, were mixed with Ent-Amp, Ent-Amx, MGE-Amp, MGE-Amx, DGE-Amp, or DGE-Amx. Ent was synthesized following a literature procedure^55 and stored as DMSO stock solution at −20° C. MGE and DGE were prepared from Ent using MceC and IroB as described for MGE-PEG3-N3 and DGE-PEG3-N3.
(§2) In another exemplary experiment, select conjugates (Ent-Amp, MGE-Amp, and DGE-Amp) with select native siderophores (Ent, MGE, and DGE) were tested against the uropathogenic strain E. coli CFT073 in 50% MHB, t=19 h, 30° C. 2,2′-dipyridyl (DP, 200 μM) was added to provide conditions of iron limitation. The concentration of the conjugates was fixed at 100 nM and the concentration of the native siderophores was varied.
as §2, with “(Ent-Amx, MGE-Amx,” for “(Ent-Amp, MGE-Amp,”, “DGE-Amx)” for “DGE-Amp)”, “DP (200” for “2,2′-dipyridyl (DP, 200”

E. coli B = test: Antimicrobial activity assay, E. coli B; format: cell-based, Escherichia coli; settings: 50% MHB, 30° C., t=19 h
Method: as §1
In another exemplary experiment, antibacterial activities of the conjugates were tested against E. coli B in 50% MHB at 30° C., t=19 h. DP (200 μM) was added to provide conditions of iron limitation.

[3] = tested on: mixed culture of E. coli K-12 and E. coli UTI89; test: Mixed culture assay, E. coli K-12 and E. coli UTI89; format: cell-based, Escherichia coli; settings: iron-deficient conditions (200 μM DP), 50% MHB, 30° C., t=19 h
From the text: No antibiotic marker was included in these cultures.

[4] = tested on: Salmonella enterica serovar Typhimurium (STM) IR715; test: Antibacterial activity assay, Salmonella Typhimurium; format: cell-based; settings: 50% MHB, 100 μM 2,2′-dipyridyl, 30° C., t=19 h
Method: FIGS. 12A and 12B show exemplary antibacterial activities of Ent-Amp, Ent-Amx, MGE-Amp, MGE-Amx, DGE-Amp, and DGE-Amx against Salmonella enterica serovar Typhimurium (STM) IR715 (50% MHB with 100 μM 2,2′-dipyridyl to provide conditions of iron limitation, 30° C., t=19 h). (FIG. 12A) Antibacterial activity of Amp and the Amp-containing conjugates (Ent-Amp, MGE-Amp, and DGE-Amp). […] (FIG. 12B) Antibacterial activity of Amx and the Amx-containing conjugates (Ent-Amx, MGE-Amx, and DGE-Amx).

CC1(C)SC2C(NC(=O)C(NC(=O)CCCc3cn(CCOCCOCCOCCNC(=O)c4cc(O)c(O)c(C(=O)NC5COC(=O)C(NC(=O)c6cc(C7OC(CO)C(O)C(O)C7O)cc(O)c6O)COC(=O)C(NC(=O)c6cccc(O)c6O)COC5=O)c4)nn3)c3ccccc3)C(=O)N2C1C(=O)O (stereo not shown) [MGE-Amp]
effect of lipocalin-2 (lcn2) on antibacterial activity (E. coli CFT073 [1]): no effect; also recorded: unaffected; also recorded: not attenuated | concentration providing complete growth inhibition (E. coli 25922): 100 nM | antibacterial activity at 100 nM (E. coli H9049; 200 μM DP): inactive | antibacterial activity, comparison (E. coli H9049; 200 μM DP): more active against the bacteria than DGE-Amp | attenuation of antibacterial activity by native siderophores (E. coli CFT073 [2]): attenuated by Ent, MGE, and DGE | antibacterial activity at 100 nM (E. coli B; 200 μM DP): inactive | antibacterial activity, comparison (E. coli B; 200 μM DP): more active against the bacteria than DGE-Amp | growth inhibition in mixed culture at 100 nM [3]: only inhibited the growth of E. coli UTI89 | antibacterial activity relative to the unmodified antibiotic [4]: enhanced antibacterial activity relative to unmodified Amp

CC1(C)SC2C(NC(=O)C(NC(=O)CCCc3cn(CCOCCOCCOCCNC(=O)c4cc(O)c(O)c(C(=O)NC5COC(=O)C(NC(=O)c6cc(C7OC(CO)C(O)C(O)C7O)cc(O)c6O)COC(=O)C(NC(=O)c6cc(C7OC(CO)C(O)C(O)C7O)cc(O)c6O)COC5=O)c4)nn3)c3ccccc3)C(=O)N2C1C(=O)O (stereo not shown) [DGE-Amp]
effect of lipocalin-2 (lcn2) on antibacterial activity (E. coli CFT073 [1]): no effect; also recorded: unaffected; also recorded: not attenuated | concentration required to provide complete growth inhibition (E. coli 25922): 1 µM | antibacterial activity at 100 nM (E. coli H9049; 200 μM DP): inactive | concentration at which growth inhibition was observed (attributed to iron deprivation) (E. coli H9049; 200 μM DP): 10 µM | attenuation of antibacterial activity by native siderophores (E. coli CFT073 [2]): attenuated by Ent, MGE, and DGE | antibacterial activity at 100 nM (E. coli B; 200 μM DP): inactive | concentration at which growth inhibition was observed (attributed to iron deprivation) (E. coli B; 200 μM DP): 10 µM | growth inhibition in mixed culture at 100 nM [3]: only inhibited the growth of E. coli UTI89 | antibacterial activity relative to the unmodified antibiotic [4]: enhanced antibacterial activity relative to unmodified Amp

CC1(C)SC2C(NC(=O)C(NC(=O)CCCc3cn(CCOCCOCCOCCNC(=O)c4cc(O)c(O)c(C(=O)NC5COC(=O)C(NC(=O)c6cccc(O)c6O)COC(=O)C(NC(=O)c6cccc(O)c6O)COC5=O)c4)nn3)c3ccc(O)cc3)C(=O)N2C1C(=O)O (stereo not drawn) [Ent-Amx]
effect of lipocalin-2 (lcn2) on antibacterial activity (E. coli CFT073 [1]): attenuated in the presence of Lcn2 | attenuation of antibacterial activity by native siderophores (E. coli CFT073 [2]): only attenuated in the presence of Ent or MGE | antibacterial activity relative to the unmodified antibiotic [4]: enhanced antibacterial activity relative to unmodified Amx

CC1(C)SC2C(NC(=O)C(NC(=O)CCCc3cn(CCOCCOCCOCCNC(=O)c4cc(O)c(O)c(C(=O)NC5COC(=O)C(NC(=O)c6cccc(O)c6O)COC(=O)C(NC(=O)c6cccc(O)c6O)COC5=O)c4)nn3)c3ccccc3)C(=O)N2C1C(=O)O (stereo not drawn) [Ent-Amp]
effect of lipocalin-2 (lcn2) on antibacterial activity (E. coli CFT073 [1]): attenuated in the presence of Lcn2 | concentration providing complete growth inhibition (E. coli 25922): 100 nM | concentration providing complete growth inhibition (E. coli H9049; 200 μM DP (iron-deficient)): 100 nM | attenuation of antibacterial activity by native siderophores (E. coli CFT073 [2]): only attenuated in the presence of Ent and MGE | concentration providing complete growth inhibition (E. coli B; 200 μM DP (iron-deficient)): 100 nM | concentration providing complete growth inhibition for both strains [3]: 100 nM | antibacterial activity relative to the unmodified antibiotic [4]: enhanced antibacterial activity relative to unmodified Amp
